In US6369107B1, “Combined use of diclofenac and tribenoside to treat osteoarthritis” (KS Biomedix Ltd., priority 1994, dated 2002):
Where “and” joins values, the source holds several entries; their conditions need not be identical. Identical values can stand only once.

What was measured:
[1] = tested on: monoamine oxidase (MAO); conditions: mice given the drug; background, Chambers et al 1992; cited from earlier work
[2] = tested on: matrix of cartilages of the tibial plateau of STR/ORT mice; test: Quantitative interference microscopy of dry mass per unit area in the tibial plateau cartilage matrix of treated STR/ORT mice; format: in vivo; conditions: for effect on the dry mass per unit area (and therefore water content) of medial cartilage: feeding STR/ORT mice
Text: The extra-cellular factor was studied by quantitative interference microscopy, as described by Ross, “Phase Contrast and Interference Microscopy for Cell Biologists” Arnold: London, p.36 (1967). This form of microscopy allows the investigator to measure the dry mass, per unit area (Cs), in selected regions of a section or of a cell. This measurement then allows the assessment of water content (Cw): […]

[3] = tested on: STR/ORT mice; conditions: mice given the drug; background; cited from earlier work
[4] = tested on: STR/ORT mice; test: Development of osteoarthritis / cartilage damage in STR/ORT mice; format: in vivo; conditions: fraction of mice
Text: The present invention is based on the postulate that two influences are involved in the development of OA: a cellular and an extracellular factor.

[5] = tested on: monoamine oxidase (MAO); test: Localisation of monoamine oxidase (MAO) activity in chondrocytes of potentially osteoarthritic cartilage of mice; format: in vivo; conditions: feeding STR/ORT mice
Text: In normal articular cartilage (human as well as murine), monoamine oxidase in chondrocytes can be found located precisely in mitochondria. During the development of the natural disease in mice, these granules become larger and apparently burst, the monoamine oxidase (MAO) activity becomes distributed through the cytoplasm of the chondrocytes and even into the surrounding matrix. This was described by Chambers et al, Int. J. Exp. Path. 73:115-123 (1992), who related the MAO activity in the medial as against that in the (normal) lateral cartilage in untreated mice and in those treated with diclofenac.
There was no sign of activity in the general cytoplasm or in the matrix.
Results are shown in Table 1, i.e. the dry mass per μm in the matrix of cartilages of the tibial plateau of STR/ORT mice after various treatments. Three mice were treated with diclofenac (Df) alone, four with tribenoside (Tb) alone, and four with both (Df+Tb).

[6] = STR/ORT mice, matrix of tibial plateau cartilage, one line per mouse, * duplicate sections

Structure (SMILES) | localisation of the MAO in the potentially osteoarthritic cartilage [1] | Mass pg/unit area in the medial cartilage [2, 6] | effect on the dry mass per unit area (and therefore water content) of medial cartilage [2] | development of OA [3] | mice having severe OA [4] | localisation of MAO activity / MAO activity in the medial cartilage [5] | Mass pg/unit area in the lateral cartilage [2, 6] [pg/unit area]
O=C(O)Cc1ccccc1Nc1c(Cl)cccc1Cl [Df, diclofenac sodium] | marked improvement | 0.51 pg/unit area and 0.50 pg/unit area and 0.52 pg/unit area | no effect | did not stop the development of OA | at least 9/10 | – | –
CCOC1O[C@H]([C@@H](COCc2ccccc2)OCc2ccccc2)[C@H](OCc2ccccc2)[C@H]1O (stereo partly drawn) [Tb, tribenoside] | – | 2.54 pg/unit area and 2.76 pg/unit area and 2.58 pg/unit area and 2.77 pg/unit area and 2.29 pg/unit area and 2.44 pg/unit area and 3.14 pg/unit area | markedly increased | – | – | did not improve | 2.84
